One experiment has as its target Carbonic anhydrase 4 (Homo sapiens, UniProt P22748). The experiment is described as follows: Inhibition of human recombinant carbonic anhydrase 4 expressed in Escherichia coli BL21 (DE3) by stopped-flow CO2 hydration assay.
The target of experiment [1] is Carbonic anhydrase 5A, mitochondrial (Homo sapiens, UniProt P35218). Put plainly: Inhibition of human recombinant carbonic anhydrase 5A expressed in Escherichia coli BL21 (DE3) by stopped-flow CO2 hydration assay.
Carbonic anhydrase 5A, mitochondrial, sequence (P35218 whole entry): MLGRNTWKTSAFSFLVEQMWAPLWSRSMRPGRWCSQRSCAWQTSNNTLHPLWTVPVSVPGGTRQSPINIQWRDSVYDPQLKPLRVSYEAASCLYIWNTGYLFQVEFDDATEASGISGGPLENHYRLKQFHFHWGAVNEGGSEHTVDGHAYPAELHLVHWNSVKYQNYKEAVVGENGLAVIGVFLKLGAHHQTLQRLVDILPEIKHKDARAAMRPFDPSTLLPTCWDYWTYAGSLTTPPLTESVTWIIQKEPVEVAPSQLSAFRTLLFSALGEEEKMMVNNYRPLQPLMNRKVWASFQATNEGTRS
Another experiment has as its target Carbonic anhydrase 6 (Homo sapiens, UniProt P23280). The experiment is described as follows: Inhibition of human recombinant carbonic anhydrase 6 expressed in Escherichia coli BL21 (DE3) by stopped-flow CO2 hydration assay.
In another experiment the target is Carbonic anhydrase 7 (Homo sapiens, UniProt P43166). The experiment is described as follows: Inhibition of human recombinant carbonic anhydrase 7 expressed in Escherichia coli BL21 (DE3) by stopped-flow CO2 hydration assay.
Carbonic anhydrase 7, sequence (P43166 whole entry): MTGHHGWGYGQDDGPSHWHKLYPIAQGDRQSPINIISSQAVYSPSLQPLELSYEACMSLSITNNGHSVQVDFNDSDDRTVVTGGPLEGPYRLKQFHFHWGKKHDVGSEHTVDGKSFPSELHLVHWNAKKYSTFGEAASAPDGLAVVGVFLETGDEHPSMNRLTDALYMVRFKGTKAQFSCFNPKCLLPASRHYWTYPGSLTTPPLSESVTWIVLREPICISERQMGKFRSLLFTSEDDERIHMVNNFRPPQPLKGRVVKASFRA
In the next experiment the target is Carbonic anhydrase 13 (Homo sapiens, UniProt Q8N1Q1). Put plainly: Inhibition of human recombinant carbonic anhydrase 13 expressed in Escherichia coli BL21 (DE3) by stopped-flow CO2 hydration assay.
Carbonic anhydrase 13, sequence (Q8N1Q1 whole entry): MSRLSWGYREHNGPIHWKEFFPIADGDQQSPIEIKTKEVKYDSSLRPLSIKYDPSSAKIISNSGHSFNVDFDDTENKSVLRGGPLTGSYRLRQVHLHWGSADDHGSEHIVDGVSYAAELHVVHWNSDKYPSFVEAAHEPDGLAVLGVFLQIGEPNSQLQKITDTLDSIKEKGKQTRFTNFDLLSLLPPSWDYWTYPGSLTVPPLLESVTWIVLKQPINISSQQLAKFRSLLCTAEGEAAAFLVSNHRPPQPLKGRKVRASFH
In another experiment the target is Carbonic anhydrase 14 (Homo sapiens, UniProt Q9ULX7). The experiment is described as follows: Inhibition of human recombinant carbonic anhydrase 14 expressed in Escherichia coli BL21 (DE3) by stopped-flow CO2 hydration assay.
Carbonic anhydrase 14, sequence (Q9ULX7 whole entry): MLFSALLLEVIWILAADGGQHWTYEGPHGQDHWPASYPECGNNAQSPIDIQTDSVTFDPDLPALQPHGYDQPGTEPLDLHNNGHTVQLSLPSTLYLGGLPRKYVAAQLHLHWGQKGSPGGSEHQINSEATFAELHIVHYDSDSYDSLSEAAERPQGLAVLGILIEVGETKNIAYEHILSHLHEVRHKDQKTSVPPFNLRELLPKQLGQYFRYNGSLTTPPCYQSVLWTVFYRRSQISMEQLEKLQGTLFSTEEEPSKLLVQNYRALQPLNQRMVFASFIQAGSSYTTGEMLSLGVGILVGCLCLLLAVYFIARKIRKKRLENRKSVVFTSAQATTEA

Carbonic anhydrase 6, sequence (P23280 whole entry): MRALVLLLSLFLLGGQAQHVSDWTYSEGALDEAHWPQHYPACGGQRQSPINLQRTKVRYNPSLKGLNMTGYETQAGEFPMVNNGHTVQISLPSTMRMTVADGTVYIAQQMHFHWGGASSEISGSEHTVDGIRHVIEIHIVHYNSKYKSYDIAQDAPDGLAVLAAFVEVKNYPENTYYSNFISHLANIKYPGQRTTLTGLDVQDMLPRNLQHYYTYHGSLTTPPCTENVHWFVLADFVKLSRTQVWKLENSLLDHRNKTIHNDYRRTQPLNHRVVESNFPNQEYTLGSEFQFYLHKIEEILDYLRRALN
Carbonic anhydrase 4, sequence (P22748 whole entry): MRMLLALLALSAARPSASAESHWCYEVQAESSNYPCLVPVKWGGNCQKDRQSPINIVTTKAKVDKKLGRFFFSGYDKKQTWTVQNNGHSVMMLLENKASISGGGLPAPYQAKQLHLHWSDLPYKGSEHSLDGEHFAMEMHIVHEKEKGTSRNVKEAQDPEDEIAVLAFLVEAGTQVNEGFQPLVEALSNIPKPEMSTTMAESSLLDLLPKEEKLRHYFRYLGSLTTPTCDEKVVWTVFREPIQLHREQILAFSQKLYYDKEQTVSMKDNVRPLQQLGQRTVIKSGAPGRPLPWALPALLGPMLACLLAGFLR

Broadly, the Ki is a dissociation constant, usually derived from enzyme kinetics or from competition with a known ligand. As for `NS(=O)(=O)CCNC(=O)/C(Cc1ccc(O)c(Br)c1)=N/O`, the Ki is 0.0753 µM at Carbonic anhydrase 4; 0.154 µM in experiment [1]; 9.68 µM at Carbonic anhydrase 6; 0.0017 µM on Carbonic anhydrase 7; 10.6 µM on Carbonic anhydrase 13; 0.379 µM at Carbonic anhydrase 14.
